Test results from patent US20220133753A1, “COMPOSITIONS AND METHODS USEFUL FOR TREATING DISEASES CHARACTERIZED BY INSUFFICIENT PANTOTHENATE KINASE ACTIVITY” (Comet Therapeutics, Inc., priority 2016, published 2022).

Legend:
[1] = Stability of CoA in PBS, medium and fetal calf serum by HPLC; details: formed from CoA in serum, time course of 6 hours
Method: HPLC sample preparation protocol for total CoA and 4′-phosphopantetheine measurement: Samples were briefly washed with ice-cold PBS solution. Samples were sonicated thoroughly in 100 μl ice-cold PBS and centrifuged for 10-15 min at 4° C. to collect supernatant. Tris(2-carboxyethyl)phosphine hydrochloride (Sigma) (50 mM; 10 ul) was added to 50 μl sample supernatant and were incubated at room temperature for 15 min after vortex-mixing. Saturated ammonium sulfate solution or Millipore 3KD centrifugal filter units were used to remove proteins. The samples were centrifuged at 14,000 rpm for 15 min at 4° C. The clear supernatant (50 ul) or the filtrate was derivatized with 45 ul of ammonium 7-flurobenzo-2-oxa-1,3-doazole-4-sulfonate (SBD-F, Sigma) (1 mg/ml in borax buffer—0.1M containing 1 mM EDTA disodium, pH 9.5), and 5 ul ammonia solution (12.5% v/v, Merck Millipore) at 60° C. for 1 h. The derivatized samples were placed in a refrigerated autosampler (10° C.) in the Shimadzu HPLC system, and injected for total CoA and PPanSH analysis using optimized chromatographic separation conditions combined with fluorescence detection (described below).
Chromatography separation condition: Chromatographic analysis was performed with a Shimadzu LC-10AC liquid chromatograph, SCL-10A system controller, SIL-10AC automatic sample injector and LC-10AT solvent delivery system. Shimadzu RF-20Axs fluorescence detector was used for derivatized sample extract analysis. The fluorescence detector was set at excitation and emission wavelengths of 385 nm and 515 nm, respectively. Signal output was collected digitally with Shimadzu Labsolution software and post run analysis was performed. […] The two mobile phases consisted of A: 100 mM ammonium acetate buffer (pH 4.5) and B: acetonitrile. Flow rate was maintained at 0.8 ml/min with a slow gradient elution: 0% B till 7 min, 20% B at 20 min, 20% B at 22 min, 50% B at 23 min, maintained at 50% B till 27 min, 0% B at 28 min and 7-10 min for column re-equilibration.
The stability of CoA in PBS, serum-free medium, medium containing fetal calf (FCS) serum and in fetal calf serum was measured.

[2] = tested on: dPANK/fbl RNAi treated Drosophila S2 cells; test: dPANK/fbl RNA interference in Drosophila S2 cells, rescue by CoA or 4′-phosphopantetheine; format: cell-based; details: compound added to the medium; for histone (protein) acetylation of dPANK/fbl RNAi treated S2 cells: immunofluorescence
Method: Drosophila S2 Cell Culture, RNA Interference, and CoA and 4′-phosphopantetheine treatment: Drosophila Schneider's S2 cells were maintained at 25° C. in Schneider's Drosophila medium (Invitrogen) supplemented with 10% heat inactivated fetal calf serum (Gibco) and antibiotics (penicillin/streptomycin, Invitrogen) under laboratory conditions. Synthesis of RNAi constructs and RNA interference (dsRNA) treatment was carried out as described previously (Siudeja K et al, EMBO Mol Med 3, 755-766 (2011)). Non-relevant (human gene; hMAZ) dsRNA was used as control. The cells were incubated for 4 days to induce an efficient knock-down. Cells were then subcultured, with or without CoA (Sigma-Aldrich, Cat. No: C4780—which is used for all the experiments wherever stated below) or 4′-phosphopantetheine (PPanSH) at different concentrations and were maintained for additional 3 days until analysis for rescue efficiency of the compounds was performed. The stock solutions of compounds were made in sterile water and stored in −20° C. until use.
(§1) Drosophila S2 Cell Immunofluorescence Staining: For immunofluorescence Drosophila S2 cells were seeded on Poly-L-Lysine coated (Sigma-Aldrich) glass microscope slides and allowed to settle for 45 min. Cells were fixed with 3.7% formaldehyde (Sigma Aldrich) for 20 min, washed briefly with PBS+0.1% Triton-X-100 (Sigma Aldrich) and permeabilized with PBS+0.2% Triton-X-100 for 20 min. The slides were incubated in primary antibody (rabbit anti-AcLys, Cell Signaling Cat No: 9441, 1:500) to visualize histone acetylation levels in PBS+0.1% Triton-X-100 overnight and after an additional washing step in PBS+0.1% Triton-X-100 they were incubated in secondary goat anti-rabbit-Alexa488 antibody (Molecular Probes) for two hours at room temperature (RT). F-actin was detected with Rhodamin-Phalloidin (20 U/ml)(Invitrogen) and DNA by staining with DAPI (0.2 ug/ml) (Thermo Scientific). Finally the samples were mounted in 80% glycerol and analyzed using a Leica fluorescence microscope with Leica software. Adobe Photoshop and Illustrator (Adobe Systems Incorporated, San Jose, Calif., USA) were used for image assembly.

HEK293 cells = test: HoPan treatment of mammalian HEK293 cells in combination with CoA or 4′-phosphopantetheine; format: cell-based, human; details: HoPan treated HEK293 cells, compound added to the medium
Method: HoPan treatment of mammalian HEK293 Cells in combination with CoA and 4′-phosphopantetheine treatment: HEK293 cells were maintained in dMEM (Invitrogen) supplemented with 10% fetal calf serum (Gibco) and antibiotics (penicillin/streptomycin, Invitrogen). For HoPan treatment, cells were cultured in custom made dMEM without vitamin B5 (Thermo Scientific) supplemented with dialyzed FCS (Thermo Scientific). CoA or PPanSH was added to HEK293 cells for the final concentration of 25 uM, either in the presence or absence of HoPan (0.5 mM) for 4 days, followed by analysis for phenotype and rescue efficiency of CoA and PPanSH.
Western blot analysis and Antibodies: For Western blot analysis, cells were collected and washed with phosphate buffer saline (PBS), followed by centrifugation. The cells were lysed and sonicated in 1X Laemmli Sample Buffer and boiled for 5 min with 5% β-mercaptoethanol (Sigma). Protein content was determined using DC protein assay (BioRad). Equal amounts of protein were loaded on a 10 or 12.5% SDS-PAGE gel, transferred onto PVDF membranes and blocked with 5% milk in PBS/0.1% Tween, followed by overnight incubation with primary antibodies. The primary antibodies used were: rabbit-anti dPANK/fbl, 1:4000 Eurogentec custom made as described previously5, mouse anti-tubulin (Sigma Aldrich Cat no: T5168, 1:5000), anti-acetyl-Histone3 (Active Motif Cat no: 39139, 1:2000), anti GAPDH (Fitzgerald Cat no: 10R-G109a, 1:10000), rabbit anti COASY (Abcam Cat no: AB129012, 1:1000). Appropriate HRP-conjugated secondary antibodies (Amersham) were used and detection was performed using enhanced chemi-luminescence (Pierce cat nog: 32106) and Amersham hyperfilm (GE Healthcare). Band intensities were quantified with Image-studio software.

Drosophila S2 cells = test: HoPan treatment of Drosophila S2 cells in combination with CoA or 4′-phosphopantetheine; format: cell-based; details: HoPan treated S2 cells
Method: HoPan treatment of Drosophila S2 Cell in combination with CoA or 4′-phosphopantetheine treatment: Drosophila Schneider's S2 cells were maintained at standard conditions as explained above. Cells in the exponential phase of growth were used for all the experiments. Different indicated concentrations of CoA or 4′-phosphopantetheine (deuterium labelled PPanSH(D4) or unlabeled PPanSH) were added to S2 cells either in the presence or absence of 0.5 mM HoPan (Zhou Fang Pharm Chemical, China) for 48 h. Similarly, Drosophila S2 cells were treated with different concentrations of PPanSH(D4) at either 25° C. or 4° C. and cells were then harvested at various time points to access transport of PPanSH(D4). Stable isotope labelled PPanSH containing 4 deuterium atoms was purchased from Syncom (Groningen, The Netherlands) as a sodium salt (chemical structure is provided in FIG. 13A). As a read out cell count, intracellular total CoA and PPanSH levels (both labelled and unlabeled levels wherever appropriate) and histone acetylation levels were analyzed as explained below.
as §1

[3] = tested on: primary human fibroblasts from healthy controls, MCAD deficiency and PA deficiency patients; test: Mitochondrial stress test (Seahorse), basal OCR of primary fibroblasts; format: cell-based; details: 24 h treatment
From the text: A study was thus performed to test the ability of S-acetyl-(S)-4′-phosphopantetheine to facilitate increased basal oxidative respiration in primary fibroblast cultures from patients diagnosed with MCAD deficiency and PA deficiency. Impaired metabolism were observed through functional measurements of respiration using a Seahorse XF Analyzer, where oxygen consumption rate (OCR) reflects oxidative respiration.
Patient derived cell lines were subject to a mitochondrial stress test according to standard protocol with a cell seeding density of 30 k cells/well (n=2) in glucose free media. After incubation with various concentrations of S-acetyl-4′-phosphopantetheine or vehicle for 24 h, rescue potential was assessed by increase in basal OCR (average of six readings between 30-70 min), relative to control: basal OCR from vehicle treatment was set to 1.0. […] Experiment was performed in two replicates: systematically outlying values caused by seeding errors, port failures, or values within background were excluded from analysis.

[4] = tested on: RNAi knock-down of CG7461 drosophila; test: Drosophila model of VLCAD deficiency, survival in starvation; format: in vivo; details: 5 mM, fed for 24 h
From the text: The drosophila gene CG7461 is considered to be a good ortholog of ACADVL, as determined by Fly DIOPT (DRSC Integrative Ortholog Prediction Tool). RNAi approaches are an established method of modelling various diseases, and the GD stock library at the Vienna Drosophila Resource Centre (VDRC) contains a knock-down strain for CG7461 (VDRC ID 28028). Down-regulation of CG7461 by RNAi, results in reduced viability when metabolically challenged with starvation.
Five virgin females from Act5C-GAL4 (RNAi expression driver line) and ten virgin males from UAS-GD 28028 (RNAi knock-down of CG7461) were crossed, to generate mutant progeny. In a similar manner, control flies were generated for the RNAi driver line (Gal4 control: Act5C-GAL4×GD 60000) and the upstream activating sequence (UAS control: UAS-GD 28028×Iso 31). From their offspring, 3-day old adult flies were allowed to feed for 24 h on glucose with and without 5 mM (S)-acetyl-4′-phosphopantetheine, then incubated on 2% agar medium without media. Dead flies were counted every 6 hours (up 90 hours) to obtain % survival over time. Rescue potential was assessed by the ability to survive in starvation conditions, expressed as the area under the curve (calculated by trapezium rule) of the cumulative frequency, relative to each control strain.

[5] = tested on: MCAD patient fibroblast cell lines; test: Mitochondrial stress test (Seahorse), reserve capacity of MCAD patient fibroblasts; format: cell-based, human; details: MCAD fibroblasts, relative to vehicle treated control
From the text: Medium-chain acyl-CoA dehydrogenase (MCAD) deficiency is a condition in which the body's capacity to break down fats with medium chain lengths is impaired, caused by mutations in the ACADM gene, which can lead to hypoglycaemia, and liver dysfunction. Left untreated, it can lead to seizures, coma and other serious health problems, with acute symptoms often preceded by extended periods of fasting or an infection with vomiting. Impaired metabolism were observed through functional measurements of respiration using a Seahorse XF Analyzer, where oxygen consumption rate (OCR) reflects oxidative respiration.
A study was performed to test the Rescue potential of S-acetyl-4′-phosphopantetheine in primary patient fibroblast model of MCAD deficiency. MCAD patient fibroblast cell lines (genotyped as containing homozygous K304E mutations in ACADM) were subject to a mitochondrial stress test according to standard protocol with a cell seeding density of 30 k cells/well (n=2). Rescue potential was assessed by increase in reserve capacity: defined as the difference between basal and maximal OCR, controlled by subtracting values for non-mitochondiral respiration (after rotenone treatment). The study was performed in two replicates.

[6] = tested on: CG34404 down-regulated drosophila; format: in vivo
From the text: The drosophila gene CG34404 is considered to be a good ortholog of both MCCC1 and MCCC2, as determined by Fly DIOPT (DRSC Integrative Ortholog Prediction Tool). RNAi approaches are an established method of modelling various diseases, and the KK stock library at the Vienna Drosophila Resource Centre (VDRC) contains a knock-down strain for CG34404 (VDRC ID 103335). Down-regulation of CG34404 by RNAi, causes developmental delay.
Five virgin females from UAS-KK 103335 (RNAi knock-down of CG34404) and ten virgin males from Act5C-GAL4 (heterozygous RNAi expression driver line with CyO balancer) were crossed, and allowed to lay for a period of 24 h in vials containing drosophila media with and without S-acetyl-4′-phosphopantetheine. Rescue potential was assessed by the number of eclosed male mutant or control flies every 6 h, as a percentage of total eclosed flies of each genotype, expressed as the AAUC (calculated by trapezium rule) of the cumulative eclosion relative to the control strain, as shown in FIG. 22A. Further, the region of relative AUCs are plotted in FIG. 22B under treatment conditions.

Row | Compound | stability of 4′-phosphopantetheine in serum [1] | cell count of dPANK/fbl RNAi treated S2 cells [2] | histone (protein) acetylation of dPANK/fbl RNAi treated S2 cells [2] | histone (protein) acetylation of dPANK/fbl RNAi treated S2 cells ([2]; listed as PpanSH) | rescue of HoPan-induced impaired histone acetylation (HEK293 cells) | rescue of HoPan-induced reduction in cell count (HEK293 cells) | intracellular CoA level (HEK293 cells; HPLC) | rescue of HoPan-induced decrease in cell count (Drosophila S2 cells; compound added to the medium) | rescue of HoPan-induced histone acetylation defect (Drosophila S2 cells; compound added to the medium) | rescue of HoPan-induced histone acetylation defect (Drosophila S2 cells; compound added to the medium, listed as PpanSH) | intracellular levels of 4′-phosphopantetheine (Drosophila S2 cells; external supplementation, HPLC) | effect on basal OCR in patient fibroblasts compared with healthy controls ([3]; MCAD and PA patient fibroblasts) | basal OCR levels ([3]; primary fibroblasts, relative to vehicle controls) | ability to survive starvation relative to control flies (AUC of cumulative survival) [4] | ability to survive starvation relative to control flies (AUC of cumulative survival) ([4]; listed as (S)-acetyl-4′-phosphopantetheine) | spare respiratory capacity (reserve capacity) [5] | reduction of the observed developmental delay ([6]; 2 mM in drosophila media) | toxicity in drosophila ([6]; in vivo)
1 | CC(C)(COP(=O)(O)O)[C@@H](O)C(=O)NCCC(=O)NCCS [4′-phosphopantetheine] | stable | rescued | rescued the histone acetylation defect | rescues acetylation defects | rescued | rescued | rescued | rescued | rescued the histone acetylation defect | rescues acetylation defects | significantly increased | – | – | – | – | – | – | –
2 | S-acetyl-4′-phosphopantetheine | – | – | – | – | – | – | – | – | – | – | – | observed more strongly | consistently elevated | partially recovered towards control levels | partially recovered | improved spare respiratory capacity | 27 cumulative fly days | some toxicity
